Experimental data from US20220332799A1, “HERV INHIBITORS FOR USE IN TREATING TAUOPATHIES” (Deutsches Zentrum Für Neurodegenerative Erkrankungen E.V. …, priority 2019, published 2022).
Entries after “also recorded” stand apart in the source; their conditions may differ.

Assays:
[1] = tested on: HEK Tau-FusionRed^sol cells expressing murine XPR1-HA; test: Tau aggregate induction in recipient cells by coculture with N2a s2E Tau-GFP^CBD donor cells; type: cell-based, human; settings: donors pretreated with 10 μM; coculture 3 d in the presence of 10 μM; vs DMSO
Procedure: To examine this effect on Tau aggregate spreading, an N2a s2E cell clone stably propagating aggregated Tau-GFP^CBD was produced (FIG. 11a). […]. Cells and EVs were analyzed for the presence of aggregated Tau-GFP. Pronase-resistant Tau-GFP was found in both cell lysate and EVs (FIG. 2q). To inhibit MuERV gene product maturation, donor cells were treated with Amprenavir for three days. Donor cells and donor cell-derived EVs were subsequently exposed for three days to recipient HEK cells expressing soluble Tau-FusionRed and the murine XPR1 receptor variant required for MuERV Env interaction. Due to this long incubation time, the coculture and EV induction assays were performed in the presence of Amprenavir (FIG. 11b). […]
Recipient cells were cultured on CellCarrier-96 plates or 384 black microplates (PerkinElmer) at appropriate cell numbers for 1 h, and then treated with 5-10 μl of prepared samples (isolated EVs or recombinant NM fibrils). […] On average, a total of 3-4×10^4 cells per well and at least 3 wells per treatment were analyzed.
The treatment of cells with Amprenavir (10 μM; Santa Cruz) and DMSO was performed for 72 h in EV-depleted medium in T175 flasks. Afterwards, the total numbers of viable cells and the viability upon drug treatment were determined using the Vi-VELL™ XR Cell Viability Analyzer (Beckman Coulter). […]

[2] = tested on: HEK Tau-FRsol cells; test: Tau-FR aggregate induction by coculture with MCF-7 Tau-GFPAD donor cells; type: cell-based, human; settings: donors pretreated with 2 μM for 4 d; coculture 3 d without drug; vs DMSO
Procedure: FIG. 14: Human endogenous retroviruses contribute to the spreading of protein aggregates. • a. Experimental workflow. A human breast cancer cell line MCF-7 (4) was engineered to stably express Tau-GFP and induced to propagate Tau aggregates by exposure to Alzheimer's disease brain homogenate (AD). A single cell clone was subsequently isolated and used in the experiment (MCF-7 Tau-GFPAD). This donor clone was treated with 2 μM 5-Aza-2-deoxycytidine (Aza) for 4 d to de-repress HERV expression. Pretreated donor cells were cocultured with HEK-Tau-FRsol cells. • b. […] Statistics: Unpaired Student's t-test (n=3). • c. Quantitative analysis of recipient cells with induced Tau-FR aggregates following coculture with DMSO-treated or Aza-treated donor cells. […] Recipients were subsequently cocultured with transduced donors that had been passaged at least 5 times post transduction. • e. shRNA-mediated downregulation of Syncytin-1 mRNA in MCF-7 Tau-GFPAD cells assessed by quantitative real-time PCR. […] Quantitative analysis of recipient cells with induced Tau-FR aggregates following coculture with donors with decreased HERV-W Syncytin-1 expression. […]
To inhibit methyltransferase, MCF-7 Tau-GFPAD cells were treated with 2 μM Aza or DMSO for 4 d. […] Afterwards, the total numbers of viable cells and the viability upon drug treatments were determined using the Vi-VELLTMXR Cell Viability Analyzer (Beckman Coulter). […]

CC(C)CN(C[C@@H](O)[C@H](Cc1ccccc1)NC(=O)O[C@H]1CCOC1)S(=O)(=O)c1ccc(N)cc1 [Amprenavir]
Tau-FusionRed aggregate induction in cocultures [1]: decreased Tau-FusionRed aggregate induction in Amprenavir-treated cocultures; also recorded: significantly decreased Tau-FusionRed aggregate induction in recipients

Nc1ncn([C@H]2C[C@H](O)[C@@H](CO)O2)c(=O)n1 [Decitabine, 5-aza-2′-deoxycytidine]
recipient cells with induced Tau-FR aggregates in cocultures [2]: increased recipient cells with aggregates in cocultures
